Source: patent publication US20100215775A1, “USE OF C10-C14-ALKANEDIOLS IN THE PREPARATION OF A COMPOSITION FOR THE PROPHYLAXIS AND/OR TREATMENT OF MALASSEZIA-INDUCED DANDRUFF FORMATION” (SYMRISE GmbH & Co. KG, priority 2006, published 2010)
Values after ≈ are worked out from the molar mass of the structure shown.

Test system: Malassezia furfur strain DSM6171
Assay: MIC value measurement by agar dilution method against Malassezia furfur
Type: cell-based, Malassezia furfur (synonym: Pityrosporum ovale)
Settings: for factor by which activity is greater than that of 1,2-octanediol: ratio of MIC values versus 1,2-octanediol (MIC 225 ppm); for factor by which activity is greater than that of 1,2-octanediol / MIC: Malassezia furfur; for MIC: DSM6171, 72 h
Method: The antimicrobial action of the alkane-1,2-diols against Malassezia furfur was determined by means of the agar dilution method in accordance with DIN 58 940/ICS and DIN 58 944/ICS. Malassezia furfur strain DSM6171 was used as the test organism. Petri dishes having a diameter of 9 cm and containing 8.7 ml of freshly prepared Mueller-Hinton agar (Merck, art. 1.05437) kept liquid at 50° C. and containing 3% Tween 80 (Merck, art. 8.2217) were used. In order to prepare the test concentrations, ethanolic stock solutions of the alkane-1,2-diol samples were diluted with 96% ethanol until the following final test concentrations of the alkane-1,2-diols in the Mueller-Hinton agar were present: 25,000 ppm, 12,500 ppm, 6300 ppm, 3600 ppm, 1800 ppm, 1100 ppm, 900 ppm, 450 ppm, 225 ppm, 112 ppm, 56 ppm, 28 ppm, 14 ppm, 7 ppm, 4 ppm. 2 agar plates were cast per test concentration and nutrient medium. After solidification and drying (about 1 hour at 37° C.), the test plates were inoculated punctually with in each case 1 μl of the Malassezia furfur (DSM 6171-2.8×10^7 KBE/ml) test organism suspensions. The inoculated plates were subsequently incubated for 72 hours at 30° C. and then evaluated. The lowest active ingredient concentration at which, macroscopically, no growth is present was regarded as the MIC (minimum inhibitory concentration). The MIC values of the alkane-1,2-diols listed in Table 1 were determined in accordance with the general test conditions.

[1] = agar dilution, Mueller-Hinton agar with 3% Tween 80, 72 hours at 30° C., lowest concentration with no macroscopic growth

MIC [1] | MIC value [1] | Compound | factor by which activity is greater than that of 1,2-octanediol
25000 µg/mL (≈ 240 mM) |  | CCCC(O)CO (stereo not shown) [1,2-Pentanediol] | 
< 7 µg/mL |  | CCCCCCCCCCCCC(O)CO (stereo not shown) [1,2-Tetradecanediol] | at least 32
225 µg/mL (≈ 1.54 mM) |  | CCCCCCC(O)CO (stereo not shown) [1,2-Octanediol] | 
12500 µg/mL (≈ 106 mM) |  | CCCCC(O)CO (stereo not shown) [1,2-Hexanediol] | 

Continued, compound first:

Compound | MIC [1] | MIC value [1] | factor by which activity is greater than that of 1,2-octanediol
CCCCCCCCC(O)CO (stereo not shown) [1,2-Decanediol] |  |  | about 8
CCCCCCCCCCC(O)CO (stereo not shown) [1,2-Dodecanediol] |  |  | about 16
CCCCCCCCCCCCCCCCC(O)CO (stereo not shown) [1,2-Octadecanediol] | > 1100 µg/mL | >1100 ppm | 
CCCCCCCCCCCCCCC(O)CO (stereo not shown) [1,2-Hexadecanediol] | 1100 µg/mL (≈ 4.26 mM) |  | 
